Measured values as given in the CombiSolv-Exp solvation set (Vermeire and Green 2021).
Values belong to the compound of their own block, whether it stands above or below them.

Assay: solvent given as SMILES

SMILES: CCCCCCCCCCCCCCCCCCCCCCC
- solvation free energy, 298 K (in CC(=O)N(C)C): -15.7 kcal/mol
- solvation free energy, 298 K (in CC(C)(C)O): -14.2 kcal/mol
- solvation free energy, 298 K (in CC(C)=O): -13.4 kcal/mol
- solvation free energy, 298 K (in CCC(C)=O): -14.3 kcal/mol
- solvation free energy, 298 K (in CCC(C)O): -14.1 kcal/mol
- solvation free energy, 298 K (in CCCCOC(C)=O): -14.9 kcal/mol
- solvation free energy, 298 K (in CCOC(C)=O): -14.4 kcal/mol
- solvation free energy, 298 K (in CN(C)C=O): -15.8 kcal/mol
- solvation free energy, 298 K (in COC(C)=O): -13.7 kcal/mol
- solvation free energy, 298 K (in O): 5.07 kcal/mol

- solvation free energy, 298 K (in O): -3.88 kcal/mol
SMILES: CCCCCC(C)O (configuration not stated)

- solvation free energy, 298 K (in CCCCCC): -5.57 kcal/mol
- solvation free energy, 298 K (in CCCCCCC): -5.48 kcal/mol
- solvation free energy, 298 K (in CCCCCCCC): -5.42 kcal/mol
- solvation free energy, 298 K (in CCCCCCCCCC): -5.37 kcal/mol
- solvation free energy, 298 K (in CCCCCCCCCCCCCCCC): -5.24 kcal/mol
- solvation free energy, 298 K (in CCCCCCCCO): -5.61 kcal/mol
- solvation free energy, 298 K (in NC=O): -4.32 kcal/mol
- solvation free energy, 298 K (in O): -2.48 kcal/mol
- solvation free energy, 298 K (in [2H]O[2H]): -2.55 kcal/mol
SMILES: CCCCCOC(C)=O

SMILES: COc1nc(NC(C)C)nc(NC(C)C)n1
- solvation free energy, 298 K (in O): -9.69 kcal/mol

- solvation free energy, 298 K (in O): 0.25 kcal/mol
SMILES: C=C(C)C1CCC(C)C12CC=C(C)CC2 (configuration not stated)

SMILES: CC(C)Br
- solvation free energy, 298 K (in C=CCCCCCCCCCCCCCC): -3.29 kcal/mol
- solvation free energy, 298 K (in O): -0.48 kcal/mol

SMILES: Clc1c(Cl)c(Cl)c2c(c1Cl)Oc1c(Cl)c(Cl)c(Cl)c(Cl)c1O2
- solvation free energy, 298 K (in O): -4.53 kcal/mol

- solvation free energy, 298 K (in C=CCCCCCCCCCCCCCC): -3.7 kcal/mol
- solvation free energy, 298 K (in CC#N): -2.7 kcal/mol
- solvation free energy, 298 K (in CN1CCCC1=O): -2.66 kcal/mol
- solvation free energy, 298 K (in O): 2.88 kcal/mol
SMILES: CCCC(C)(C)C

- solvation free energy, 298 K (in O): -5.07 kcal/mol
SMILES: CC(=O)CC(=O)c1ccc(F)c(F)c1F

SMILES: Clc1cc(Cl)c(-c2cc(Cl)c(Cl)c(Cl)c2Cl)cc1Cl
- solvation free energy, 298 K (in CCCCCCCCO): -13.9 kcal/mol
- solvation free energy, 298 K (in O): -3.53 kcal/mol

SMILES: CCCCCCCCCCCCCCCCCCCC
- solvation free energy, 298 K (in CC(=O)N(C)C): -13.6 kcal/mol
- solvation free energy, 298 K (in CC(C)(C)O): -12.4 kcal/mol
- solvation free energy, 298 K (in CCC(C)=O): -12.6 kcal/mol
- solvation free energy, 298 K (in CCCCCCCCC=CCCCCCCCC(=O)OCC(COC(=O)CCCCCCCC=CCCCCCCCC)OC(=O)CCCCCCCC=CCCCCCCCC): -12.5 kcal/mol
- solvation free energy, 298 K (in CCCCOC(C)=O): -12.9 kcal/mol
- solvation free energy, 298 K (in CCO): -11.4 kcal/mol
- solvation free energy, 298 K (in CN(C)C=O): -13.6 kcal/mol
- solvation free energy, 298 K (in COC(C)(C)C): -13.5 kcal/mol
- solvation free energy, 298 K (in O): 4.52 kcal/mol

- solvation free energy, 298 K (in CCCCCCCCCCCCCCCC): -3.52 kcal/mol
- solvation free energy, 298 K (in CCCCCCCCO): -4.15 kcal/mol
- solvation free energy, 298 K (in O): -3.24 kcal/mol
- solvation free energy, 298 K (in [2H]O[2H]): -3.22 kcal/mol
SMILES: CC(=O)C(C)C

SMILES: CCc1ccc2c(c1)C(=O)c1ccccc1C2=O
- solvation free energy, 298 K (in C1CCCCC1): -12.2 kcal/mol
- solvation free energy, 298 K (in C1CCOC1): -14.2 kcal/mol
- solvation free energy, 298 K (in C1COCCO1): -14.1 kcal/mol
- solvation free energy, 298 K (in CC1CCCCC1): -12.1 kcal/mol
- solvation free energy, 298 K (in CC(C)CC(C)(C)C): -11.6 kcal/mol
- solvation free energy, 298 K (in CC(C)CCO): -12.2 kcal/mol
- solvation free energy, 298 K (in CC(C)CO): -12.1 kcal/mol
- solvation free energy, 298 K (in CC(C)O): -12.1 kcal/mol
- solvation free energy, 298 K (in CC(C)OC(C)C): -12.4 kcal/mol
- solvation free energy, 298 K (in CCC(C)O): -12.3 kcal/mol
- solvation free energy, 298 K (in CCCC(C)O): -12.3 kcal/mol
- solvation free energy, 298 K (in CCCCC(CC)CO): -12.4 kcal/mol
- solvation free energy, 298 K (in CCCCCC): -11.9 kcal/mol
- solvation free energy, 298 K (in CCCCCCC): -12 kcal/mol
- solvation free energy, 298 K (in CCCCCCCC): -12 kcal/mol
- solvation free energy, 298 K (in CCCCCCCCCC): -12 kcal/mol
- solvation free energy, 298 K (in CCCCCCCCO): -12.5 kcal/mol
- solvation free energy, 298 K (in CCCCCCCO): -12.5 kcal/mol
- solvation free energy, 298 K (in CCCCCCO): -12.4 kcal/mol
- solvation free energy, 298 K (in CCCCCO): -12.4 kcal/mol
- solvation free energy, 298 K (in CCCCCl): -13.5 kcal/mol
- solvation free energy, 298 K (in CCCCO): -12.3 kcal/mol
- solvation free energy, 298 K (in CCCCOC(C)=O): -13.4 kcal/mol
- solvation free energy, 298 K (in CCCCOCCCC): -12.6 kcal/mol
- solvation free energy, 298 K (in CCCO): -12.1 kcal/mol
- solvation free energy, 298 K (in CCO): -12.6 kcal/mol
- solvation free energy, 298 K (in CCOC(C)=O): -13.5 kcal/mol
- solvation free energy, 298 K (in CO): -12.1 kcal/mol
- solvation free energy, 298 K (in COC(C)=O): -13.7 kcal/mol
- solvation free energy, 298 K (in O): -6.57 kcal/mol

SMILES: CCc1ccccc1C
- solvation free energy, 298 K (in O): -0.95 kcal/mol

- solvation free energy, 298 K (in COCCO): -5.72 kcal/mol
- solvation free energy, 298 K (in CS(C)=O): -5.55 kcal/mol
- solvation free energy, 298 K (in O): -0.67 kcal/mol
SMILES: Cc1ccc(C(C)C)cc1

SMILES: Oc1ccccc1O
- solvation free energy, 298 K (in CCCCCC): -5.88 kcal/mol
- solvation free energy, 298 K (in CCCCCCCC): -6.04 kcal/mol
- solvation free energy, 298 K (in Cc1ccc(C)cc1): -7.95 kcal/mol
- solvation free energy, 298 K (in Cc1cccc(C)c1): -7.97 kcal/mol
- solvation free energy, 298 K (in Cc1ccccc1C): -8.02 kcal/mol
- solvation free energy, 298 K (in O): -9.82 kcal/mol

- solvation free energy, 298 K (in CCCCCCC): -5.33 kcal/mol
- solvation free energy, 298 K (in CCCCCCCCO): -6 kcal/mol
- solvation free energy, 298 K (in O): -4.11 kcal/mol
- solvation free energy, 298 K (in [2H]O[2H]): -3.82 kcal/mol
SMILES: N#Cc1ccccc1

SMILES: CC(Cl)(Cl)Cl
- solvation free energy, 298 K (in C1CCOC1): -4.35 kcal/mol
- solvation free energy, 298 K (in CC(=O)CC(C)C): -4.28 kcal/mol
- solvation free energy, 298 K (in CC(C)=O): -4.23 kcal/mol
- solvation free energy, 298 K (in CC(C)O): -3.56 kcal/mol
- solvation free energy, 298 K (in CCCCCCCCCCCCCC): -3.61 kcal/mol
- solvation free energy, 298 K (in CCCCCCCCCCCCCCCC): -3.67 kcal/mol
- solvation free energy, 298 K (in CCCCCCCCN(CCCCCCCC)CCCCCCCC): -3.63 kcal/mol
- solvation free energy, 298 K (in CCCCCCCCO): -3.67 kcal/mol
- solvation free energy, 298 K (in CCCCCN(CCCCC)CCCCC): -3.78 kcal/mol
- solvation free energy, 298 K (in CCCCCl): -4.32 kcal/mol
- solvation free energy, 298 K (in CCCCN(CCCC)CCCC): -3.69 kcal/mol
- solvation free energy, 298 K (in CCCCOCCCC): -4.08 kcal/mol
- solvation free energy, 298 K (in CCCO): -3.94 kcal/mol
- solvation free energy, 298 K (in CCOCC): -4.13 kcal/mol
- solvation free energy, 298 K (in ClC(Cl)(Cl)Cl): -4.24 kcal/mol
- solvation free energy, 298 K (in ClC(Cl)Cl): -4.42 kcal/mol
- solvation free energy, 298 K (in ClCCCl): -4.24 kcal/mol
- solvation free energy, 298 K (in [2H]O[2H]): -0.57 kcal/mol

SMILES: FC(F)(F)C(Cl)Br (configuration not stated)
- solvation free energy, 298 K (in C1CCOC1): -5.01 kcal/mol
- solvation free energy, 298 K (in C1COCCO1): -4.41 kcal/mol
- solvation free energy, 298 K (in CC(C)=O): -4.77 kcal/mol
- solvation free energy, 298 K (in COC(C)(C)C): -4.69 kcal/mol
- solvation free energy, 298 K (in COC(C)=O): -4.61 kcal/mol
